Results: ChEMBL document CHEMBL5331069, “Potential of glycyrrhizic and glycyrrhetinic acids against influenza type A and B viruses: A perspective to develop new anti-influenza compounds and drug delivery systems” (Eur J Med Chem, 2023)
Converted amounts (≈) assume the structure as drawn.

Assays:
[1] = Cytotoxicity against MDCK cells assessed as reduction in cell viability incubated for 48 hrs; assay type: toxicity, cell-based, Canis lupus familiaris; details: dog
Influenza A virus [2] = assay: Antiviral activity against Influenza A virus A/Aichi/2/68(H3N2) infected in MDCK cells assessed as inhibition of virus-induced cytopathicity; assay type: functional, organism-based
[3] = Cytotoxicity against MDCK cells assessed as reduction in cell viability incubated for 48 hrs by MTT assay; assay type: toxicity, cell-based, Canis lupus familiaris; details: dog
Influenza A virus [4] = assay: Antiviral activity against influenza A virus H1N1/pdm09 infected in MDCK cells assessed as reduction in viral titer preincubated with compound for 1 hr followed by virus infection incubated for 48 hrs followed by addition of chicken erythrocytes measured after 40 mins by hemagglutination assay; assay type: functional, organism-based
[5] = Cytotoxicity against MDCK cells assessed as reduction in cell viability incubated for 48 hrs by CellTiter-Glo assay; assay type: toxicity, cell-based, Canis lupus familiaris; details: dog
Influenza A virus [6] = assay: Antiviral activity against Influenza A virus A/WSN/33(H1N1) infected in MDCK cells assessed as inhibition of virus-induced cytopathic effect incubated for 48 hrs by CellTiter-Glo assay; assay type: functional, organism-based
Influenza A virus [7] = assay: Antiviral activity against influenza A virus A/California/07/09(H1N1)pdm09 infected in MDCK cells assessed as reduction in viral titer by agglutination assay; assay type: functional, organism-based; details: A/California/07/09(H1N1)pdm09, MDCK
[8] = Cytotoxicity against MDCK cells assessed as reduction in cell viability incubated for 72 hrs by MTT assay; assay type: toxicity, cell-based, Canis lupus familiaris; details: dog
Influenza A virus [9] = assay: Antiviral activity against influenza A virus A/Pert/16/09(H3N2) infected in MDCK cells assessed as reduction in viral titer by agglutination assay; assay type: functional, organism-based
[10] = Water solubility of the compound; assay type: physicochemical
Influenza A virus [11] = assay: Antiviral activity against influenza A virus A/NIBRG/14/H5N1 infected in MDCK cells assessed as reduction in viral titer by agglutination assay; assay type: functional, organism-based; details: A/NIBRG/14/H5N1, MDCK
Influenza B virus = assay: Antiviral activity against influenza B virus B/Brisben/60/08 infected in MDCK cells assessed as reduction in viral titer by agglutination assay; assay type: functional, organism-based; details: B/Brisben/60/08, MDCK
Influenza A virus [12] = assay: Antiviral activity against influenza A virus A/WSN/33(H1N1) infected in BALB/c mouse assessed as log reduction in viral load in lungs at 5 mg/kg administered intranasally for 5 days; assay type: functional; details: route nas, time 5 day
[13] = Water solubility of the compound by shake flask method; assay type: physicochemical; details: buffer
[14] = Oral bioavailability in rat; assay type: ADME, organism-based; details: in vivo

Q: Which CC50 at 48 h [1] does the source give for `CC1(C)[C@@H](SCCS[C@@H]2O[C@H](C(=O)O)[C@@H](O)[C@H](O)[C@H]2O)CC[C@]2(C)[C@H]3C(=O)C=C4[C@@H]5C[C@@](C)(C(=O)O)CC[C@]5(C)CC[C@@]4(C)[C@]3(C)CC[C@@H]12` here?
A: > 250 µg/mL

Q: And the IC50 (Influenza A virus [2])?
A: 54 µg/mL (≈ 74.7 µM)

Q: Which results are given for `COC(=O)CCCCCNC(=O)[C@H]1O[C@@H](O[C@H]2[C@H](O[C@H]3CC[C@]4(C)[C@H]5C(=O)C=C6[C@@H]7C[C@@](C)(C(=O)O)CC[C@]7(C)CC[C@@]6(C)[C@]5(C)CC[C@H]4C3(C)C)O[C@H](C(=O)NCCCCCC(=O)OC)[C@@H](O)[C@@H]2O)[C@H](O)[C@@H](O)[C@@H]1O`?
A: CC50 at 48 h [3]: 408 µg/mL (≈ 379 µM); EC50 (Influenza A virus [4]): 12.7 µg/mL (≈ 11.8 µM)

Q: For `CC(=O)O[C@@H]1[C@@H](OC(C)=O)[C@H]2O[C@H]3[C@H](OC(C)=O)[C@@H](OC(C)=O)[C@@H](O[C@H]4[C@H](OC(C)=O)[C@@H](OC(C)=O)[C@@H](O[C@H]5[C@H](OC(C)=O)[C@@H](OC(C)=O)[C@@H](O[C@H]6[C@H](OC(C)=O)[C@@H](OC(C)=O)[C@@H](O[C@H]7[C@H](OC(C)=O)[C@@H](OC(C)=O)[C@@H](O[C@H]8[C@H](OC(C)=O)[C@@H](OC(C)=O)[C@@H](O[C@@H]1[C@@H](Cn1cc(CN9CCN(CCNC(=O)[C@@]%10(C)CC[C@]%11(C)CC[C@]%12(C)C(=CC(=O)[C@@H]%13[C@@]%14(C)CC[C@H](O)C(C)(C)[C@@H]%14CC[C@]%13%12C)[C@@H]%11C%10)CC9)nn1)O2)O[C@@H]8Cn1cc(CN2CCN(CCNC(=O)[C@@]8(C)CC[C@]9(C)CC[C@]%10(C)C(=CC(=O)[C@@H]%11[C@@]%12(C)CC[C@H](O)C(C)(C)[C@@H]%12CC[C@]%11%10C)[C@@H]9C8)CC2)nn1)O[C@@H]7Cn1cc(CN2CCN(CCNC(=O)[C@@]7(C)CC[C@]8(C)CC[C@]9(C)C(=CC(=O)[C@@H]%10[C@@]%11(C)CC[C@H](O)C(C)(C)[C@@H]%11CC[C@]%109C)[C@@H]8C7)CC2)nn1)O[C@@H]6Cn1cc(CN2CCN(CCNC(=O)[C@@]6(C)CC[C@]7(C)CC[C@]8(C)C(=CC(=O)[C@@H]9[C@@]%10(C)CC[C@H](O)C(C)(C)[C@@H]%10CC[C@]98C)[C@@H]7C6)CC2)nn1)O[C@@H]5Cn1cc(CN2CCN(CCNC(=O)[C@@]5(C)CC[C@]6(C)CC[C@]7(C)C(=CC(=O)[C@@H]8[C@@]9(C)CC[C@H](O)C(C)(C)[C@@H]9CC[C@]87C)[C@@H]6C5)CC2)nn1)O[C@@H]4Cn1cc(CN2CCN(CCNC(=O)[C@@]4(C)CC[C@]5(C)CC[C@]6(C)C(=CC(=O)[C@@H]7[C@@]8(C)CC[C@H](O)C(C)(C)[C@@H]8CC[C@]76C)[C@@H]5C4)CC2)nn1)O[C@@H]3Cn1cc(CN2CCN(CCNC(=O)[C@@]3(C)CC[C@]4(C)CC[C@]5(C)C(=CC(=O)[C@@H]6[C@@]7(C)CC[C@H](O)C(C)(C)[C@@H]7CC[C@]65C)[C@@H]4C3)CC2)nn1`, which CC50 at 48 h [5] is on record?
A: > 100000 nM

Q: And the IC50 (Influenza A virus [6])?
A: 2860 nM

Q: For `COC(=O)C(Cc1c[nH]c2ccccc12)NC(=O)[C@H]1O[C@@H](O[C@H]2[C@H](O[C@H]3CC[C@]4(C)[C@H]5C(=O)C=C6[C@@H]7C[C@@](C)(C(=O)NC(Cc8c[nH]c9ccccc89)C(=O)OC)CC[C@]7(C)CC[C@@]6(C)[C@]5(C)CC[C@H]4C3(C)C)O[C@H](C(=O)NC(Cc3c[nH]c4ccccc34)C(=O)OC)[C@@H](O)[C@@H]2O)[C@H](O)[C@@H](O)[C@@H]1O` (stereo partly drawn), which EC50 (Influenza A virus [7]) is on record?
A: 20.7 µg/mL (≈ 14.5 µM)

Q: What about the CC50 at 72 h [8] of the same compound?
A: 620 µg/mL (≈ 435 µM)

Q: What about the EC50 (Influenza A virus [9]) of the same compound?
A: 74.4 µg/mL (≈ 52.3 µM)

Q: What does the source list for `CC1(C)[C@@H](O)CC[C@]2(C)[C@H]3C(=O)C=C4[C@@H]5C[C@@](C)(C(=O)O)CC[C@]5(C)CC[C@@]4(C)[C@]3(C)CC[C@@H]12` [ENOXOLONE]?
A: solubility [10]: < 10 µg/mL; CC50 at 48 h [1]: 7.4 µg/mL (≈ 15.7 µM)

Q: Which EC50 (Influenza A virus [11]) does the source give for `CCOC(=O)C(Cc1c[nH]c2ccccc12)NC(=O)[C@H]1O[C@@H](O[C@H]2[C@H](O[C@H]3CC[C@]4(C)[C@H]5C(=O)C=C6[C@@H]7C[C@@](C)(C(=O)NC(Cc8c[nH]c9ccccc89)C(=O)OCC)CC[C@]7(C)CC[C@@]6(C)[C@]5(C)CC[C@H]4C3(C)C)O[C@H](C(=O)NC(Cc3c[nH]c4ccccc34)C(=O)OCC)[C@@H](O)[C@@H]2O)[C@H](O)[C@@H](O)[C@@H]1O` (stereo partly drawn) here?
A: 17.5 µg/mL (≈ 11.9 µM)

Q: What about the EC50 (Influenza A virus [7]) of the same compound?
A: 44.5 µg/mL (≈ 30.4 µM)

Q: And the CC50 at 72 h [8]?
A: > 500 µg/mL

Q: And the EC50 (Influenza A virus [9])?
A: 33 µg/mL (≈ 22.5 µM)

Q: What about the EC50 (Influenza B virus) of the same compound?
A: 50 µg/mL (≈ 34.1 µM)

Q: With `COC(=O)[C@H]1O[C@@H](SCCN(C(C)=O)[C@H]2CC[C@]3(C)[C@H]4C(=O)C=C5[C@@H]6C[C@@](C)(C(=O)O)CC[C@]6(C)CC[C@@]5(C)[C@]4(C)CC[C@H]3C2(C)C)[C@H](O)[C@@H](O)[C@@H]1O` as the compound, how does the CC50 at 48 h [1] read?
A: > 75 µg/mL

Q: And the IC50 (Influenza A virus [2])?
A: 72.1 µg/mL (≈ 94.6 µM)

Q: With `COC(=O)[C@@]1(C)CC[C@]2(C)CC[C@]3(C)[C@H](C(=O)C=C4[C@@]5(C)C=C(C#N)C(=O)C(C)(C)[C@@H]5CC[C@]43C)[C@@H]2C1` as the compound, how does the “log(activity)” value (Influenza A virus [12]) read?
A: 2.3

Q: For `O=c1cc(-c2ccccc2)oc2cc(O)c(O)c(O)c12` [BAICALEIN], which solubility [13] is on record?
A: 0.15 µg/mL (≈ 0.555 µM)

Q: What about the bioavailability [14] of the same compound?
A: 2.2%

Q: With `CC(=O)N(CCS[C@@H]1O[C@H](C(=O)O)[C@@H](O)[C@H](O)[C@H]1O)[C@H]1CC[C@]2(C)[C@H]3C(=O)C=C4[C@@H]5C[C@@](C)(C(=O)O)CC[C@]5(C)CC[C@@]4(C)[C@]3(C)CC[C@H]2C1(C)C` as the compound, how does the CC50 at 48 h [1] read?
A: > 250 µg/mL

Q: And the IC50 (Influenza A virus [2])?
A: 87 µg/mL (≈ 116 µM)
